Tested on: regenerated Aloe vera shoots
Experiment: in vitro rooting of regenerated Aloe vera shoots
Format: cell-based, Aloe vera (Aloe barbadensis)
Conditions: MS supplemented with IAA (0.5, 1.0 or 2.0 mg/L); hormone-free media gave 100% rooting in 3 weeks
Description: Regenerated shoots were rooted in both media containing indole acetic acid (0.5, 1.0, or 2.0 mg/L LAA) and MS media lacking any hormones. Shoots were more successfully rooted in the MS media lacking hormones. The culture conditions were the same as those used for initiation.

With indole acetic acid [IAA] the rooting of shoots was “no rooting was observed”.

Reference: patent US7892831B2, “Method for in vitro mass culture of Aloe vera” (priority 2006, dated 2011)
